In patent US8883748B2, “Formulation for treating fungal infection” (Lifecare Innovations Pvt. Ltd., priority 2009, dated 2014):
In brackets after ≈: the same amount, converted by molar mass.

Columns and labels:
Assay in all cases: In-vitro antifungal spectrum and MIC, clinical isolates
Assay type in all cases: cell-based
Pseudallescheria boydii = settings: for MIC: in µg/mL (unit assumed)
Protocol: (§1) The experiments were carried out to determine antifungal spectrum and MIC of Nanosomal Amphotericin B vis-à-vis commonly used antifungals viz.
(§2) Amphotericin B, Voriconazole, Itraconazole and Fluconazole to ascertain efficacy against pathogenic yeasts and moulds including dermatophytes.

Apophysomyces elegans = settings: for MIC: unit assumed
Protocol: as §1, §2

Candida albicans = settings: for MIC: in µg/mL (unit assumed)
Protocol: as §1, §2

Mucor spp. = settings: for MIC: in µg/mL (unit assumed)
Protocol: as §1, §2

[1] = test system: Trichophyton mentagrophytes; settings: for MIC: in µg/mL (unit assumed)
Protocol: as §1, §2

Paeciliomyces spp. = settings: for MIC: in µg/mL (unit assumed)
Protocol: as §1, §2

[2] = test system: Aspergillus flavus, A. fumigatus; settings: for MIC: in µg/mL (unit assumed)
Protocol: as §1, §2

Fusarium spp. = settings: for MIC: in µg/mL (unit assumed)
Protocol: as §1, §2

[3] = test system: Rhizopus arrhizus, R. pusilus; settings: for MIC: in µg/mL (unit assumed)
Protocol: as §1, §2

Scytalidum dimidatum = settings: for MIC: unit assumed
Protocol: as §1, §2

Alternaria spp. = settings: for MIC: in µg/mL (unit assumed)
Protocol: as §1, §2

Absidia corymbifera = settings: for MIC: in µg/mL (unit assumed)
Protocol: as §1, §2

Microsporum gypseum = settings: for MIC: in µg/mL (unit assumed)
Protocol: as §1, §2

Penicillium marneffei = settings: for MIC: in µg/mL (unit assumed)
Protocol: as §1, §2

Phialophora verrucosa = settings: for MIC: unit assumed
Protocol: as §1, §2

Sporothrix schenckii = settings: for MIC: in µg/mL (unit assumed)
Protocol: as §1, §2

Cryptococcus neoformans = settings: for MIC: in µg/mL (unit assumed)
Protocol: as §1, §2

[4] = test system: Cladophialophora bantiana; settings: for MIC: in µg/mL (unit assumed)
Protocol: as §1, §2

Aspergillus oryzae = settings: for MIC: in µg/mL (unit assumed)
Protocol: as §1, §2

Trichophyton rubrum = settings: for MIC: in µg/mL (unit assumed)
Protocol: as §1, §2

Curvularia spp. = settings: for MIC: in µg/mL (unit assumed)
Protocol: as §1, §2

With `C[C@@H]1[C@H](O)[C@@H](C)/C=C/C=C/C=C/C=C/C=C/C=C/C=C/[C@H](O[C@@H]2O[C@H](C)[C@@H](O)[C@H](N)[C@@H]2O)C[C@@H]2O[C@](O)(C[C@@H](O)C[C@@H](O)[C@H](O)CC[C@@H](O)C[C@@H](O)CC(=O)O[C@H]1C)C[C@H](O)[C@H]2C(=O)O` [Amphotericin B] the Susceptibility category (Pseudallescheria boydii) was “Active”, the MIC (Pseudallescheria boydii) was 0.5-1 and the Susceptibility category (Apophysomyces elegans) was “Active”. For the same compound, the MIC (Apophysomyces elegans) was 2 µg/mL (≈ 2.16 µM), the Susceptibility category (Candida albicans) was “Active” and the MIC (Candida albicans) was 0.125-1. For the same compound, the Susceptibility category (Mucor spp.) was “Active”, the MIC (Mucor spp.) was 1-2 and the Susceptibility category [1] was “Active”. For the same compound, the MIC [1] was 0.5-2, the Susceptibility category (Paeciliomyces spp.) was “Intermediate” and the MIC (Paeciliomyces spp.) was 1-4. For the same compound, the Susceptibility category [2] was “Active”, the MIC [2] was 0.5-2 and the Susceptibility category (Fusarium spp.) was “Active”. The MIC (Fusarium spp.) was 0.5-1, the Susceptibility category [3] was “Active” and the MIC [3] was 0.5-2. For the same compound, the Susceptibility category (Scytalidum dimidatum) was “Active”, the MIC (Scytalidum dimidatum) was 0.5 µg/mL (≈ 0.541 µM) and the Susceptibility category (Alternaria spp.) was “Active”. For the same compound, the MIC (Alternaria spp.) was 1-2, the Susceptibility category (Absidia corymbifera) was “Active” and the MIC (Absidia corymbifera) was 0.5. The Susceptibility category (Microsporum gypseum) was “Active”, the MIC (Microsporum gypseum) was 0.5 and the Susceptibility category (Penicillium marneffei) was “Active”. The MIC (Penicillium marneffei) was 0.25-1, the Susceptibility category (Phialophora verrucosa) was “Intermediate” and the MIC (Phialophora verrucosa) was 4 µg/mL (≈ 4.33 µM). The Susceptibility category (Sporothrix schenckii) was “Active”, the MIC (Sporothrix schenckii) was 0.5-1 and the Susceptibility category (Cryptococcus neoformans) was “Active”. For the same compound, the MIC (Cryptococcus neoformans) was 0.25-1, the Susceptibility category [4] was “Active” and the MIC [4] was 0.5-1. For the same compound, the Susceptibility category (Aspergillus oryzae) was “Intermediate”, the MIC (Aspergillus oryzae) was 2-4 and the Susceptibility category (Trichophyton rubrum) was “Active”. For the same compound, the MIC (Trichophyton rubrum) was 0.25-1, the Susceptibility category (Curvularia spp.) was “Active” and the MIC (Curvularia spp.) was 0.125-1.

In the case of `OC(Cn1cncn1)(Cn1cncn1)c1ccc(F)cc1F` [Fluconazole], the Susceptibility category (Pseudallescheria boydii) is reported as “Resistant”, the MIC (Pseudallescheria boydii) is reported as 8-32 and the Susceptibility category (Apophysomyces elegans) is reported as “Resistant”. The MIC (Apophysomyces elegans) was 64 µg/mL (≈ 209 µM), the Susceptibility category (Candida albicans) was “Variable” and the MIC (Candida albicans) was 0.125-64. For the same compound, the Susceptibility category (Mucor spp.) was “Resistant”, the MIC (Mucor spp.) was 64 and the Susceptibility category [1] was “Resistant”. For the same compound, the MIC [1] was 32-64, the Susceptibility category (Paeciliomyces spp.) was “Resistant” and the MIC (Paeciliomyces spp.) was 64. The Susceptibility category [2] was “Resistant”, the MIC [2] was 32-64 and the Susceptibility category (Fusarium spp.) was “Resistant”. For the same compound, the MIC (Fusarium spp.) was 16-64, the Susceptibility category [3] was “Resistant” and the MIC [3] was 8-64. For the same compound, the Susceptibility category (Scytalidum dimidatum) was “Resistant”, the MIC (Scytalidum dimidatum) was 32 µg/mL (≈ 104 µM) and the Susceptibility category (Alternaria spp.) was “Resistant”. The MIC (Alternaria spp.) was 32-64, the Susceptibility category (Absidia corymbifera) was “Resistant” and the MIC (Absidia corymbifera) was 64. For the same compound, the Susceptibility category (Microsporum gypseum) was “Resistant”, the MIC (Microsporum gypseum) was 64 and the Susceptibility category (Penicillium marneffei) was “Resistant”. The MIC (Penicillium marneffei) was 32-64, the Susceptibility category (Phialophora verrucosa) was “Resistant” and the MIC (Phialophora verrucosa) was 16 µg/mL (≈ 52.2 µM). For the same compound, the Susceptibility category (Sporothrix schenckii) was “Resistant”, the MIC (Sporothrix schenckii) was 8-64 and the Susceptibility category (Cryptococcus neoformans) was “Variable”. The MIC (Cryptococcus neoformans) was 0.125-16, the Susceptibility category [4] was “Resistant” and the MIC [4] was 32-64. The Susceptibility category (Aspergillus oryzae) was “Resistant”, the MIC (Aspergillus oryzae) was 64 and the Susceptibility category (Trichophyton rubrum) was “Variable/Resistant”. The MIC (Trichophyton rubrum) was 4-32, the Susceptibility category (Curvularia spp.) was “Resistant” and the MIC (Curvularia spp.) was 8-64.

For `CCC(C)n1ncn(-c2ccc(N3CCN(c4ccc(OCC5COC(Cn6cncn6)(c6ccc(Cl)cc6Cl)O5)cc4)CC3)cc2)c1=O` (centres unmarked) [Itraconazole], the Susceptibility category (Pseudallescheria boydii) was “Active”, the MIC (Apophysomyces elegans) was 16 µg/mL (≈ 22.7 µM) and the MIC (Candida albicans) was 0.03-8. The MIC (Mucor spp.) was 0.03-8, the Susceptibility category [1] was “Active” and the MIC [1] was 1-2. The MIC (Paeciliomyces spp.) was 0.06-16, the MIC [2] was 0.03-16 and the MIC (Fusarium spp.) was 8-32. For the same compound, the MIC [3] was 8-16, the MIC (Scytalidum dimidatum) was 16 µg/mL (≈ 22.7 µM) and the Susceptibility category (Alternaria spp.) was “Active”. The MIC (Alternaria spp.) was 1-2, the MIC (Absidia corymbifera) was 16 and the Susceptibility category (Microsporum gypseum) was “Active”. The MIC (Microsporum gypseum) was 0.25-0.5, the Susceptibility category (Penicillium marneffei) was “Active” and the MIC (Penicillium marneffei) was 1-2. For the same compound, the MIC (Phialophora verrucosa) was 16 µg/mL (≈ 22.7 µM), the MIC (Sporothrix schenckii) was 0.03-16 and the MIC (Cryptococcus neoformans) was 0.03-4. The Susceptibility category [4] was “Active”, the MIC [4] was 0.5-2 and the Susceptibility category (Aspergillus oryzae) was “Active”. For the same compound, the MIC (Aspergillus oryzae) was 0.125-0.5, the MIC (Trichophyton rubrum) was 8-16 and the MIC (Curvularia spp.) was 8-16.

For `C[C@@H](c1ncncc1F)[C@](O)(Cn1cncn1)c1ccc(F)cc1F` [Voriconazole], the Susceptibility category (Pseudallescheria boydii) was “Active”, the Susceptibility category (Apophysomyces elegans) was “Intermediate” and the MIC (Apophysomyces elegans) was 8 µg/mL (≈ 22.9 µM). For the same compound, the Susceptibility category (Candida albicans) was “Variable”, the MIC (Candida albicans) was 0.03-8 and the Susceptibility category (Mucor spp.) was “Resistant”. For the same compound, the MIC (Mucor spp.) was 8-16, the Susceptibility category [1] was “Active” and the MIC [1] was 0.5-1. For the same compound, the Susceptibility category (Paeciliomyces spp.) was “Variable”, the MIC (Paeciliomyces spp.) was 0.125-8 and the Susceptibility category [2] was “Active”. The MIC [2] was 0.125-1, the Susceptibility category (Fusarium spp.) was “Intermediate” and the MIC (Fusarium spp.) was 0.5-4. The Susceptibility category [3] was “Variable”, the MIC [3] was 1-8 and the Susceptibility category (Scytalidum dimidatum) was “Active”. The MIC (Scytalidum dimidatum) was 0.5 µg/mL (≈ 1.43 µM), the Susceptibility category (Alternaria spp.) was “Active” and the MIC (Alternaria spp.) was 0.5-1. The Susceptibility category (Absidia corymbifera) was “Variable”, the MIC (Absidia corymbifera) was 2-16 and the Susceptibility category (Microsporum gypseum) was “Active”. The MIC (Microsporum gypseum) was 0.125-0.5, the Susceptibility category (Penicillium marneffei) was “Active” and the MIC (Penicillium marneffei) was 0.25-1. For the same compound, the Susceptibility category (Phialophora verrucosa) was “Active”, the MIC (Phialophora verrucosa) was 1 µg/mL (≈ 2.86 µM) and the Susceptibility category (Sporothrix schenckii) was “Variable”. The MIC (Sporothrix schenckii) was 0.03-16, the Susceptibility category (Cryptococcus neoformans) was “Variable” and the MIC (Cryptococcus neoformans) was 0.03-16. For the same compound, the Susceptibility category [4] was “Active”, the MIC [4] was 0.25-2 and the Susceptibility category (Aspergillus oryzae) was “Intermediate”. For the same compound, the MIC (Aspergillus oryzae) was 0.5-4, the Susceptibility category (Trichophyton rubrum) was “Active” and the MIC (Trichophyton rubrum) was 0.25-0.5. The Susceptibility category (Curvularia spp.) was “Active” and the MIC (Curvularia spp.) was 1-2.
